Source: PMC4743925, “Targeting an Essential GTPase Obg for the Development of Broad-Spectrum Antibiotics” (PLoS ONE, 2016)

Experiments:
ObgGC = molecular target: T1, ObgGC (Neisseria gonorrhoeae, UniProt Q5F5D9); experiment: mant-nucleotide fluorescence increase; type: binding; settings: 2 μM protein, labelled compound
T1 construct: gene obg; full-length with C-terminal 6xHis tag, expressed in E. coli BL21(DE3), IMAC and size exclusion; tag not reported cut

ObgKP = molecular target: T2, ObgKP (Klebsiella pneumoniae, UniProt A6TEK2); experiment: mant-nucleotide fluorescence increase; type: binding; settings: 2 μM protein, labelled compound
T2 construct: gene obg; residues 1-392, N-terminal 6xHis tag and TEV site (modified pCDF-Duet1, pKV1414), expressed in E. coli BL21(DE3); tag not reported cut

[1] = 0.3 μM mant-GTP, 5 mM MgCl2, 37 °C

T1 sequence (Q5F5D9 whole entry): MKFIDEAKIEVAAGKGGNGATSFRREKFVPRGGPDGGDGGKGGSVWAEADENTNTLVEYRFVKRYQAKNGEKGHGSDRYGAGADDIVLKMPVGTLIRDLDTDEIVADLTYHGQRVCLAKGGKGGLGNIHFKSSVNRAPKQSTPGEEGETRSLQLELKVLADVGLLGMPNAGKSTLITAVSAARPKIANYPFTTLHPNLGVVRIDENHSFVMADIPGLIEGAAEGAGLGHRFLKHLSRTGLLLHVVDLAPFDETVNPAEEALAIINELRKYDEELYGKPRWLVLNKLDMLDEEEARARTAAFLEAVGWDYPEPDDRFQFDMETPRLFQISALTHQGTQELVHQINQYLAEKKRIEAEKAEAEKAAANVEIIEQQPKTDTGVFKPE
T2 sequence (A6TEK2 whole entry, the tested form may be a part): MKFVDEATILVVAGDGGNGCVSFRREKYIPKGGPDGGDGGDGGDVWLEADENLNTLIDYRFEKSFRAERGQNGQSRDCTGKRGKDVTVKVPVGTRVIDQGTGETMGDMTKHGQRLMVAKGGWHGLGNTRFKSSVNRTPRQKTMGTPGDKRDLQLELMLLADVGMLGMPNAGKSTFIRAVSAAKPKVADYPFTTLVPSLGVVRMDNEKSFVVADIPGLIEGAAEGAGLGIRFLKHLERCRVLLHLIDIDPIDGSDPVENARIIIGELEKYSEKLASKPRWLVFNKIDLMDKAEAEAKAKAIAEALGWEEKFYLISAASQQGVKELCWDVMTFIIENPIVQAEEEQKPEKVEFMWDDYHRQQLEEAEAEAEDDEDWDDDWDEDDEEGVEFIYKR

CNc1ccccc1C(=O)O[C@H]1[C@@H](O)[C@H](n2cnc3c(=O)[nH]c(N)nc32)O[C@@H]1COP(=O)(O)OP(=O)(O)O [mant-GDP]
increase in RFU (ObgGC; 0.3 μM mant-GDP, no MgCl2, 37 °C): Assessment of mant-nucleotides binding by wild type (ObgGC) and mutated (*ObgGC)
fold increase in RFU (ObgKP; 0.3 μM mant-GDP, 37 °C): ~ 1.3 fold

CNc1ccccc1C(=O)O[C@H]1[C@@H](O)[C@H](n2cnc3c(=O)[nH]c(N)nc32)O[C@@H]1COP(=O)(O)OP(=O)(O)OP(=O)(O)O [mant-GTP]
increase in RFU (ObgGC; [1]): Assessment of mant-nucleotides binding by wild type (ObgGC) and mutated (*ObgGC)
fold increase in RFU (ObgKP; [1]): ~ 1.8 fold
